The values below come from patent US20130183384A1, “IMMEDIATE RELEASE MULTI UNIT PELLET SYSTEM” (BOEHRINGER INGELHEIM INTERNATIONAL GMBH, priority 2011, published 2013).

This data set can be described thus: Sensitivity of the drug substance to hydrolysis. The format is physicochemical. Particulars: especially at low pH. The source says:
Any formulation containing both organic acid as well as drug substance in close contact is therefore at a very high risk to decomposition, particularly in the presence of humidity. Therefore e.g. tartaric acid and active ingredient are kept separate in the formulation until the moment of application. A multiparticulate pellet approach is chosen. The drug substance is layered from an isopropanolic suspension onto seal coated spherical tartaric acid starter cores with approximately 0.6-0.8 mm diameter (FIG. 3 Structure of dabigatran etexilate pellets'.

Each structure is given as a SMILES string.

Take `CCCCCCOC(=O)N=C(N)c1ccc(NCc2nc3cc(C(=O)N(CCC(=O)OCC)c4ccccn4)ccc3n2C)cc1` [Dabigatran etexilate mesilate, dabigatran etexilate methansulfonate]: the sensitivity to hydrolysis entry is reported as “sensitive to hydrolysis especially at low pH”.
